Literature values, collected in patent US8198020B2, “Compositions and methods for enhancing phagocytosis or phagocyte activity” (Potentia Pharmaceuticals, Inc., priority 2003, dated 2012).

Test system: metastatic colorectal cancer
Conditions: patients with metastatic colorectal cancer; prolonged from 15.6

## Avastin: recombinant monoclonal antibody that binds to VEGF
  median survival: 18.3 months
